Assay results from patent US5053561A, “Method of isolating trans-1,1,4,4-tetraalkyl-2-butene-1,4-diols” (BASF Aktiengesellschaft, priority 1989, dated 1991).

Assay: Determination of the distribution coefficients between polar and non-polar phases
Format: physicochemical
Details: for Distribution coefficient k: 25° C.; for phase in which the isomer accumulates: seen from the distribution coefficients of Table 1
Description: To achieve separation of the cis- and trans-isomers of the alkenediols I which is as complete, efficient and economical as possible, it is necessary, when selecting the solvents for the polar and non-polar phases, to ensure that the quotient of the distribution coefficients ktrans /kcis of the trans- and cis-isomers between the polar and non-polar phases is as large as possible. The distribution coefficient k of the cis- or trans-isomer is defined as the concentration of isomer in the polar phase divided by the concentration of the same isomer in the non-polar phase in the equilibrium state, as illustrated by the following equations (1) and (2): [formula]
2 g of cis- or trans-alkenediol were dissolved, at 25° C., in a mixture of 40 ml of a polar solvent and 40 ml of a non-polar solvent. The mixture was vigorously shaken in a separating funnel for 10 minutes. Following separation of the phases, the solvents were removed by distillation under reduced pressure. The residues were weighed, and the results were used to calculate the distribution coefficients as defined in equations (1) and (2) above (see Table 1 below).

[1] = polar phase water + 2% methanol, non-polar phase toluene
[2] = polar phase water + 10% ethanol, non-polar phase toluene
[3] = polar phase water, non-polar phase cyclohexane
[4] = polar phase water, non-polar phase methyl cyclohexane
[5] = polar phase water, non-polar phase methyl isobutylketone
[6] = polar phase water, non-polar phase methylene chloride
[7] = polar phase water, non-polar phase n-hexane
[8] = polar phase water, non-polar phase toluene

Structure (SMILES) | Distribution coefficient k [1] | Distribution coefficient k [2] | Distribution coefficient k [3] | Distribution coefficient k [4] | Distribution coefficient k [5] | Distribution coefficient k [6] | Distribution coefficient k [7] | Distribution coefficient k [8] | phase in which the isomer accumulates
CC(C)(O)/C=C\C(C)(C)O [cis, cis-2,5-dimethyl-3-hexene-2,5-diol] | 0.39 | 0.35 | 0.56 | 0.61 | 0.09 | 0.17 | 0.76 | 0.38 | accumulates in the non-polar phase
CC(C)(O)/C=C/C(C)(C)O [trans, trans-2,5-dimethyl-3-hexene-2,5-diol] | 62 | 23 | 30 | 52 | 3.0 | 7.3 | 34 | 25 | accumulates in the polar phase
